Assay results published in patent US20250019385A1, “SPIROCYCLIC ANNULATED 2-AMINO-3-CYANO THIOPHENES AND DERIVATIVES FOR THE TREATMENT OF CANCER” (Boehringer Ingelheim International GmbH, priority 2023, published 2025).
pIC50: −log10 of the molar value.

Assays:
NCI-H358 cells = assay: NCI-H358 CTG proliferation assay (120 h) (NSCLC, G12C); type: cell-based; conditions: Homo sapiens
Method: (§1) NCI-H358 cells (ATCC No. CRL-5807) are dispensed into black 384-well plates, flat and clear bottom (Greiner, PNr. 781091) at a density of 200 cells per well in 60 μl RPMI-1640 ATCC-Formulation (Gibco #A10491)+10% FCS (fetal calf serum). Cells are incubated overnight at 37° C. in a humidified tissue culture incubator at 5% CO2. Compounds (10 mM stock in DMSO) are added at logarithmic dose series using the ECHO acoustic liquid handler system (Beckman Coulter), normalizing for added DMSO and including DMSO controls. All compound treatments are performed in technical duplicates. For the TO time point measurement, untreated cells are analyzed at the time of compound addition. Plates are incubated for 120 h, and cell viability is measured using CellTiter-Glo luminescent cell viability reagent (Promega product code G7570). Viability (stated as percent of control) is defined as relative luminescence units RLU of each well divided by the RLU of cells in DMSO controls. IC50 values are determined from viability measurements by non-linear regression using a four-parameter model.
(§2) IC50 values of representative compounds according to the invention measured with these assays in the indicated cell lines are presented in Table 46.

MKN1 cells = assay: MKN1 CTG proliferation assay (120 h) (gastric cancer, wt amplified); type: cell-based; conditions: Homo sapiens, MKN-1
Method: as §1, with “MKN1” for “NCI-H358”, “(JCRB0252)” for “(ATCC No. CRL-5807)”, “serum, HyClone, SH30084.03).” for “serum).”
as §2

[1] = Metabolic (microsomal) stability assay, human liver microsomes (HLM); type: in vitro ADME; conditions: 1 μM test compound, predicted clearance as percent of liver blood flow
Method: The metabolic degradation of the test compound is assayed at 37° C. with pooled liver microsomes (mouse (MLM), rat (RLM) or human (HLM)). The final incubation volume of 48 μL per time point contains TRIS buffer (pH 7.5; 0.1 M), magnesium chloride (6.5 mM), microsomal protein (0.5 mg/mL for mouse/rat, 1 mg/mL for human specimens) and the test compound at a final concentration of 1 μM. Following a short preincubation period at 37° C., the reactions are initiated by addition of 12 μL beta-nicotinamide adenine dinucleotide phosphate, reduced form (NADPH, 10 mM) and terminated by transferring an aliquot into solvent after different time points (0, 5, 15, 30, 60 min). Additionally, the NADPH-independent degradation is monitored in incubations without NADPH, terminated at the last time point by addition of acetonitrile. The quenched incubations are pelleted by centrifugation (4,000 rpm, 15 min). An aliquot of the supernatant is assayed by LC-MS/MS to quantify the concentration of parent compound in the individual samples.
In vitro intrinsic clearance (CLint,in vitro) is calculated from the time course of the disappearance of the test drug during the microsomal incubation. Each plot is fitted to the first-order elimination rate constant as C(t)=C0*exp(−ke*t), where C(t) and C0 are the concentration of unchanged test drug at incubation time t and that at preincubation and ke is the disappearance rate constant of the unchanged drug. Subsequently, CLint, in vitro (μL min^−1·amount protein) values are converted to predicted CLint,in vivo (mL min^−1·kg^−1) from incubation parameters according to the equation CLint, in vivo=CLint, in vitro×(incubation volume (mL)/amount protein (mg))×(amount protein (mg)/g liver tissue)×(liver weight/body wt.).
For better across species comparison the predicted clearance is expressed as percent of the liver blood flow [% QH] (mL min^−1·kg^−1) in the individual species. In general, high stability (corresponding to low % QH) of the compounds across species is desired.

NCI-H727 cells = assay: NCI-H727 CTG proliferation assay (120 h) (lung cancer, G12V); type: cell-based; conditions: Homo sapiens
Method: as §1, with “NCI-H727” for “NCI-H358”, “CRL-5815)” for “CRL-5807)”, “500” for “200”, “RPMI” for “RPMI-1640”, “(PAN P04-18047)+10%” for “(Gibco #A10491)+10%”, “serum, HyClone, SH30084.03).” for “serum).”
as §2

AsPC-1 cells = assay: AsPC-1 CTG proliferation assay (120 h) (pancreatic cancer, G12D); type: cell-based; conditions: Homo sapiens, ASPC1
Method: as §1, with “AsPC-1” for “NCI-H358”, “CRL-1682)” for “No. CRL-5807)”, “500” for “200”, “RPMI” for “RPMI-1640”, “(PAN P04-18047)+10%” for “(Gibco #A10491)+10%”, “serum, HyClone, SH30084.03).” for “serum).”
as §2

pIC50 (NCI-H358 cells)	pIC50 (MKN1 cells)	HLM QH [1]	pIC50 (NCI-H727 cells)	pIC50 (AsPC-1 cells)	SMILES
9.00	8.52	46%	9.00	7.21	C[C@H](Oc1nc(-c2noc3c2CCC[C@@]32CCCc3sc(N)c(C#N)c32)nc2c1COC[C@]21CCOC1)[C@@H]1CCCN1C [II-8]
9.00	8.52	63%	8.52	6.75	C[C@H](Oc1nc(-c2noc3c2CCC[C@@]32CCCc3sc(N)c(C#N)c32)nc2c1CNC[C@]21CCOC1)[C@@H]1CCCN1C [II-15]
8.40	8.22	80%	8.70	6.49	CO[C@H]1CCN(C)[C@@H]1[C@H](C)Oc1nc(-c2noc3c2CCC[C@@]32CCCc3sc(N)c(C#N)c32)nc2c1n(C)c(=O)n2[C@@H]1CCOC1 [II-1]
8.40	8.00	26%	8.52	6.89	C[C@H](Oc1nc(-c2noc3c2CCC[C@@]32CCCc3sc(N)c(C#N)c32)nc2c1CN(C1COC1)C[C@]21CCOC1)[C@@H]1CCCN1C [II-12]
8.70	8.30	66%	9.00	7.37	CO[C@H]1CCN(C)[C@@H]1[C@H](C)Oc1nc(-c2noc3c2CCC[C@@]32CCCc3sc(N)c(C#N)c32)nc2c1CN(C1COC1)C[C@]21CCOC1 [II-13]

The next lines start with the compound.

SMILES	pIC50 (NCI-H358 cells)	pIC50 (MKN1 cells)	HLM QH [1]	pIC50 (NCI-H727 cells)	pIC50 (AsPC-1 cells)
Cc1nn([C@@H]2CCOC2)c2nc(-c3onc4c3CCC[C@@]43CCCc4sc(N)c(C#N)c43)nc(O[C@@H](C)[C@@H]3CCCN3C)c12 [I-42]	7.68	7.09	36%	7.41	5.93
CO[C@H]1CCN(C)[C@@H]1[C@H](C)Oc1nc(-c2onc3c2CCC[C@@]32CCCc3sc(N)c(C#N)c32)nc2c1CN(C1COC1)C[C@]21CCOC1 [I-57]	8.40	9.00	61%	8.52	6.89
C[C@H](Oc1nc(-c2onc3c2CCC[C@@]32CCCc3sc(N)c(C#N)c32)nc2c1N(C)C(=O)CN2[C@@H]1CCOC1)[C@@H]1CCCN1C [I-37]	6.63	6.50	<24%	6.74	5.38
CO[C@H]1C[C@@H]([C@H](C)Oc2nc(-c3onc4c3CCC[C@@]43CCCc4sc(N)c(C#N)c43)nc3c2n(C)c(=O)n3[C@@H]2CCOC2)N(C)C1 [I-2]	7.37	7.02	73%	7.85	5.71
Cc1nc2c(O[C@@H](C)[C@@H]3CCCN3C)nc(-c3onc4c3CCC[C@@]43CCCc4sc(N)c(C#N)c43)nc2n1[C@@H]1CCOC1 [I-39]	7.72	7.54	57%	7.55	6.45
C[C@H](Oc1nc(-c2onc3c2CCC[C@@]32CCCc3sc(N)c(C#N)c32)nc2c1n(C)c(=O)n2[C@@H]1CCOC1)[C@@H]1C[C@@H]2C[C@@H]2N1C [I-28]	7.26	6.87	52%	7.57	5.76
CO[C@H]1CCN(C)[C@@H]1[C@H](C)Oc1nc(-c2onc3c2CCC[C@@]32CCCc3sc(N)c(C#N)c32)nc2c1n(C)c(=O)n2[C@@H]1CCCOC1 [I-6]	8.40	7.05	73%	8.52	6.22
CO[C@@H]1C[C@@H]([C@H](C)Oc2nc(-c3onc4c3CCC[C@@]43CCCc4sc(N)c(C#N)c43)nc3c2n(C)c(=O)n3[C@@H]2CCCOC2)N(C)C1 [I-14]	8.05	7.32	27%	8.22	6.12
COCCn1c(=O)n([C@@H]2CCOC2)c2nc(-c3onc4c3CCC[C@@]43CCCc4sc(N)c(C#N)c43)nc(O[C@@H](C)[C@@H]3CCCN3C)c21 [I-1]	8.05	6.52	65%	8.00	6.15
C[C@H](Oc1nc(-c2onc3c2CCC[C@@]32CCCc3sc(N)c(C#N)c32)nc2c1n(C)c(=O)n2[C@@H]1CC2CCC1O2)[C@@H]1CCCN1C (some centres unmarked) [I-18]	6.62	6.34	31%	6.77	5.36
C[C@H](Oc1nc(-c2onc3c2CCC[C@@]32CCCc3sc(N)c(C#N)c32)nc2c1n(C)c(=O)n2[C@@H]1CCOC1)[C@@H]1C[C@@H](F)CN1C [I-22]	8.15	7.85	56%	8.22	5.96
C[C@H](Oc1nc(-c2onc3c2CCC[C@@]32CCCc3sc(N)c(C#N)c32)nc2c1n(C)c(=O)n2[C@@]12COC[C@@H]1C2)[C@@H]1CCCN1C [I-29]	8.70	8.30	<24%	9.00	6.49
CCn1c(=O)n([C@@H]2CCCOC2)c2nc(-c3onc4c3CCC[C@@]43CCCc4sc(N)c(C#N)c43)nc(O[C@@H](C)[C@@H]3CCCN3C)c21 [I-30]	8.15	7.41	25%	8.22	6.01
C[C@H](Oc1nc(-c2onc3c2CCC[C@@]32CCCc3sc(N)c(C#N)c32)nc2c1n(C)c(=O)n2C12COC(C1)C2)[C@@H]1CCCN1C [I-15]	7.96	7.33	<24%	7.85	5.79
